# From the kinase profiling compilation of Christmann-Franck et al. (2016)
# Key:
# Assay in all cases: KINOMEscan competition binding
# Conditions in all cases: compound 10.0 µM
# [1] = biological target: IRAK3 (human) (UniProt Q9Y616)
# [2] = biological target: PIP5K1A (human) (UniProt Q99755)
# [3] = biological target: TNK1 (human) (UniProt Q13470)
# [4] = biological target: MLTK (human) (UniProt Q9NYL2)
# [5] = biological target: ALK (human) (UniProt Q9UM73)
# [6] = biological target: EGFR (human) (UniProt P00533)
# [7] = test system: ABL1 (human), P00519 [E255K]
# [8] = biological target: CIT (human) (UniProt O14578)
# [9] = biological target: JAK2 JH1 catalytic (human) (UniProt O60674)
# [10] = test system: EGFR (human), P00533 [A750P; 747-749 del]
# [11] = biological target: KDR (human) (UniProt P35968)
# [12] = biological target: ROCK2 (human) (UniProt O75116)
# [13] = biological target: ITK (human) (UniProt Q08881)
# [14] = biological target: WEE2 (human) (UniProt P0C1S8)
# [15] = biological target: MAP2K4 (human) (UniProt P45985)
# [16] = biological target: TYRO3 (human) (UniProt Q06418)
# [17] = biological target: RPS6KA6 KD1 (human) (UniProt Q9UK32)
# [18] = biological target: FGFR1 (human) (UniProt P11362)
# [19] = biological target: MYO3B (human) (UniProt Q8WXR4)
# [20] = biological target: ERBB3 (human) (UniProt P21860)
# [21] = biological target: FGFR4 (human) (UniProt P22455)
# [22] = biological target: PRKACA (human) (UniProt P17612)
# [23] = test system: EGFR (human), P00533 [747-751 del / S ins]
# [24] = biological target: CAMKK1 (human) (UniProt Q8N5S9)
# [25] = test system: EGFR (human), P00533 [G719S]
# [26] = biological target: MYLK3 (human) (UniProt Q32MK0)
# [27] = biological target: MAPK15 (human) (UniProt Q8TD08)
# [28] = biological target: SIK3 (human) (UniProt Q9Y2K2)
# [29] = biological target: ACVRL1 (human) (UniProt P37023)
# [30] = biological target: GSK3A (human) (UniProt P49840)
# [31] = biological target: FGFR2 (human) (UniProt P21802)
# [32] = test system: KIT (human), P10721 [A829P]
# [33] = biological target: MYLK4 (human) (UniProt Q86YV6)
# [34] = biological target: MAPK6 (human) (UniProt Q16659)
# [35] = biological target: PRKX (human) (UniProt P51817)
# [36] = biological target: STK38L (human) (UniProt Q9Y2H1)
# [37] = biological target: NEK9 (human) (UniProt Q8TD19)
# [38] = biological target: NEK2 (human) (UniProt P51955)
# [39] = biological target: BMPR2 (human) (UniProt Q13873)
# [40] = test system: FLT3 (human), P36888 [N841I]
# [41] = biological target: FLT4 (human) (UniProt P35916)
# [42] = biological target: EIF2AK1 (human) (UniProt Q9BQI3)
# Sequence of CIT (human) (O14578 whole entry, looked up): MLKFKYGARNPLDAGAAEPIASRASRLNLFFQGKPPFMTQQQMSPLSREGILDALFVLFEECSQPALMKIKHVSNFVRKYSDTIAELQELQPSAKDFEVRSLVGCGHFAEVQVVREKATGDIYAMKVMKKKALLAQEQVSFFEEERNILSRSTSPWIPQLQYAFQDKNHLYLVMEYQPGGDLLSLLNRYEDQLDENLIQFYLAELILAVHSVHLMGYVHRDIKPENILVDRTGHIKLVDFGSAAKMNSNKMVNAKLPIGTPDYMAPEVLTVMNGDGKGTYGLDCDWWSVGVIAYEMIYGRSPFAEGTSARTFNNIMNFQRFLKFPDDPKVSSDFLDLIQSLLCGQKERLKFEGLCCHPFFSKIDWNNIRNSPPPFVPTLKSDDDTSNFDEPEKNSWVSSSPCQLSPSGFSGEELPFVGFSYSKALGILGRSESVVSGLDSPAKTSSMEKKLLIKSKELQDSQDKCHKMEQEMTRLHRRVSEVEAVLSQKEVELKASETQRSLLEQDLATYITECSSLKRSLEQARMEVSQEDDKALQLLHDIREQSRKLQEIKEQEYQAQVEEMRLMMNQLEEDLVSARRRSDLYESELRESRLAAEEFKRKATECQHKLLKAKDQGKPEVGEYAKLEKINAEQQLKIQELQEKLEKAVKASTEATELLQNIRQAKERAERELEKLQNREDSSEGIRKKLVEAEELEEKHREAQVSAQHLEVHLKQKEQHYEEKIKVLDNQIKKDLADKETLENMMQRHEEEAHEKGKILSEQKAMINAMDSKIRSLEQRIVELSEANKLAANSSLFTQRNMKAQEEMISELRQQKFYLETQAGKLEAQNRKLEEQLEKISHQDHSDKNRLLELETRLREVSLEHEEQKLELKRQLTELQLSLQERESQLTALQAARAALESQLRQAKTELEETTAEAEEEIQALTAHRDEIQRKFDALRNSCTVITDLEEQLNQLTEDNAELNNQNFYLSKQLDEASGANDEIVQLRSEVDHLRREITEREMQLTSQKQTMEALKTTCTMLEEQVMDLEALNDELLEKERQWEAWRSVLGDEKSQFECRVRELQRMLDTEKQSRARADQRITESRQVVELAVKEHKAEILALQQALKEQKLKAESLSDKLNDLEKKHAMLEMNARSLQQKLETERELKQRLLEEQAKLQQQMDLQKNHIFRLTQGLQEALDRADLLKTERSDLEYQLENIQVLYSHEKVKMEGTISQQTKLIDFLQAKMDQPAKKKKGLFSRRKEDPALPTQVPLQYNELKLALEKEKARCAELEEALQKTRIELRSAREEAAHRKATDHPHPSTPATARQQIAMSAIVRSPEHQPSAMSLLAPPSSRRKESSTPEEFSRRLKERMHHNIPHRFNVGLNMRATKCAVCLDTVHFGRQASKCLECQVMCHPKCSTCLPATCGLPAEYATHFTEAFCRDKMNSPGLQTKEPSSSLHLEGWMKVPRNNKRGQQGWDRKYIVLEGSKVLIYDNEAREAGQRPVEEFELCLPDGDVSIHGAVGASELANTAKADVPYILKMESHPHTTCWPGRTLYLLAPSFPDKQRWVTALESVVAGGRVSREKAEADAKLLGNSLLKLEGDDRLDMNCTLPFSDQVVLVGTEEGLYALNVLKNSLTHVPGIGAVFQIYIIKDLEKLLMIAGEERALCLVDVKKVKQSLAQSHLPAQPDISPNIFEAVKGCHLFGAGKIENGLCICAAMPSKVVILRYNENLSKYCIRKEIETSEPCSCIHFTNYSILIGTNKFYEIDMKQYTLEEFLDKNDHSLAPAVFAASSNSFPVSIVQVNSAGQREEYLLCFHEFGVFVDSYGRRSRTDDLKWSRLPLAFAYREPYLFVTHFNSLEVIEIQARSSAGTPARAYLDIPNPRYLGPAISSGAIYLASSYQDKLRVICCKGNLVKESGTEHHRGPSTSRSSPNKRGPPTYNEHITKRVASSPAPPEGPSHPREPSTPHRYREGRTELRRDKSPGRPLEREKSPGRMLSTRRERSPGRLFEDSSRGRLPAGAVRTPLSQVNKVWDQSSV
# Sequence of PIP5K1A (human) (Q99755 whole entry, looked up): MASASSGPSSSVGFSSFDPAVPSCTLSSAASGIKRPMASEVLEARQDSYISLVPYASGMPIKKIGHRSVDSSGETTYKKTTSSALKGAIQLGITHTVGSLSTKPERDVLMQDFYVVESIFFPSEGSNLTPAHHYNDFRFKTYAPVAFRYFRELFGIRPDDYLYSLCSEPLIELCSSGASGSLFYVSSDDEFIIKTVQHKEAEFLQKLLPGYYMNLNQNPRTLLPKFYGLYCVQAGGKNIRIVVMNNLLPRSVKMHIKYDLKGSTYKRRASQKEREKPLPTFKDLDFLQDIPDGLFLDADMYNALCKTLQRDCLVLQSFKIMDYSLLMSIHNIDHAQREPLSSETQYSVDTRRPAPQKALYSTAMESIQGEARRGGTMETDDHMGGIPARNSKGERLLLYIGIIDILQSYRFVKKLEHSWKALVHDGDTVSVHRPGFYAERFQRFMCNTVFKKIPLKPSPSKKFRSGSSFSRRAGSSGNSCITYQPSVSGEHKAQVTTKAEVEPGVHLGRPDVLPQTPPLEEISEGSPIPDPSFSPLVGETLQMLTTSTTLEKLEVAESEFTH
# Sequence of JAK2 JH1 catalytic (human) (O60674 whole entry, looked up): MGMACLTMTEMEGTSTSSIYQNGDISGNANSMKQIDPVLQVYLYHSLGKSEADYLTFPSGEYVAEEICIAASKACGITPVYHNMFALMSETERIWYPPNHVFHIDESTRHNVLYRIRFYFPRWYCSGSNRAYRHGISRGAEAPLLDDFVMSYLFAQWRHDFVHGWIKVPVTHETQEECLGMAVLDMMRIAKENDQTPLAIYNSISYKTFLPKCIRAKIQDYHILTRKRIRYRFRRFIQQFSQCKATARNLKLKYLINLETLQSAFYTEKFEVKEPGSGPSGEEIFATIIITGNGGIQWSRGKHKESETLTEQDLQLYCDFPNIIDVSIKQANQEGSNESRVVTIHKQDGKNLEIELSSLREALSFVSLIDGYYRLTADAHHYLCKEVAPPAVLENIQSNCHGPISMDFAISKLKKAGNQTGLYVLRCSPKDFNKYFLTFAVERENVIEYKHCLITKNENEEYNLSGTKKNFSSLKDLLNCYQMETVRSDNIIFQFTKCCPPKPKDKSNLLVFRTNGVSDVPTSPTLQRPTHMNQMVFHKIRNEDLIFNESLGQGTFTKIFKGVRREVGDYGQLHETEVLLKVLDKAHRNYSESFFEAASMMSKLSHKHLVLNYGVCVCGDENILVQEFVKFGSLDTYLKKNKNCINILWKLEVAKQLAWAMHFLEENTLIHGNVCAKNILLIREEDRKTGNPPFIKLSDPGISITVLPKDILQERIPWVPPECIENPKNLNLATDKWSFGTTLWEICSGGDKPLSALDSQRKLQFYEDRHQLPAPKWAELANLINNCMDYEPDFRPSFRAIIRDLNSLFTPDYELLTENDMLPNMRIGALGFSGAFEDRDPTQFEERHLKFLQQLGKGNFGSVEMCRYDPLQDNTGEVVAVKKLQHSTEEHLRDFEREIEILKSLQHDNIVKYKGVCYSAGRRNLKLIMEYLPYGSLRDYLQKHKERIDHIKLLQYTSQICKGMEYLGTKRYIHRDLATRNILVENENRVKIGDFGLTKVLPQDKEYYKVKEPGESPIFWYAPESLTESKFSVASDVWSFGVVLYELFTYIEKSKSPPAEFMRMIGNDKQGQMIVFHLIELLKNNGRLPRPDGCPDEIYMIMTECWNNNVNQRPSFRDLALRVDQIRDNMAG
# Sequence of BMPR2 (human) (Q13873 whole entry, looked up): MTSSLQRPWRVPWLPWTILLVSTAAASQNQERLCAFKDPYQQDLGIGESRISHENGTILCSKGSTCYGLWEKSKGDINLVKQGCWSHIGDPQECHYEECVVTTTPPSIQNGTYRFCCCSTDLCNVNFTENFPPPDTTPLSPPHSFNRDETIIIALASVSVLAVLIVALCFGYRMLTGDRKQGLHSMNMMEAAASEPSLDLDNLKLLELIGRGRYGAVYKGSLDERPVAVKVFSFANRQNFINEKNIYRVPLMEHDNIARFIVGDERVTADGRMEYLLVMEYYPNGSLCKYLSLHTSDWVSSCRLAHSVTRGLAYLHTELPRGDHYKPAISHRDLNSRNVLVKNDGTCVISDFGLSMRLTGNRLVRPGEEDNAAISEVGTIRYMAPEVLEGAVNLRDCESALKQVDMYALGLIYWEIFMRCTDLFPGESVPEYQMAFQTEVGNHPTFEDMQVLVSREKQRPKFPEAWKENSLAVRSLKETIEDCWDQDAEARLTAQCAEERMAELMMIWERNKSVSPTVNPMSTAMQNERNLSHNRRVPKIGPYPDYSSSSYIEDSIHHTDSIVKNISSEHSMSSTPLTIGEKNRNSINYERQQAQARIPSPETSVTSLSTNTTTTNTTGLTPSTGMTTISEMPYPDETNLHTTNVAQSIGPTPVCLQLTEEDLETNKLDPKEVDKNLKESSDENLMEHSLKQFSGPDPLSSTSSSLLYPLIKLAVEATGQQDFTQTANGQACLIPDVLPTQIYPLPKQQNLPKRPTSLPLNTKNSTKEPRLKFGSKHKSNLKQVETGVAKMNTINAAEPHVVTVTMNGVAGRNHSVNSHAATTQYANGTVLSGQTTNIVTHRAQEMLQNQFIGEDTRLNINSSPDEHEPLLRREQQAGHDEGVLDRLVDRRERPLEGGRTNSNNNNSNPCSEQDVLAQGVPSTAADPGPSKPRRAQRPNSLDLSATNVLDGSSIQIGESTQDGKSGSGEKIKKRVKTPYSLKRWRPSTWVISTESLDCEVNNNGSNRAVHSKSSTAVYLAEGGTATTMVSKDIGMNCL
# Sequence of PRKX (human) (P51817 whole entry, looked up): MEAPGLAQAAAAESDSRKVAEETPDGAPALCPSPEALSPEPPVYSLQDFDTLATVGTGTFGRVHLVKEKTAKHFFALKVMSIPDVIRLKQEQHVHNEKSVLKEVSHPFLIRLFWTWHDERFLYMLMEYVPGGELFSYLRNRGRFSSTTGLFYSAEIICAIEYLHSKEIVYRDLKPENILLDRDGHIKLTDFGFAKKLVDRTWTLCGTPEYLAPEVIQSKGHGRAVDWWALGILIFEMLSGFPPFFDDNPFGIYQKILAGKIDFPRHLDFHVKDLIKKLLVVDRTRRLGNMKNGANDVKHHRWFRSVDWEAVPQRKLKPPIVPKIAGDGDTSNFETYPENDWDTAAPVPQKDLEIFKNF
smiles,measurement,setting,value
Cc1cc([C@@H](C)Nc2ccccc2C(=O)O)c2nc(N3CCOCC3)cc(=O)n2c1,"kinase still bound, per cent of control",[1],75%
same,"kinase still bound, per cent of control",[2],100%
same,"kinase still bound, per cent of control",[3],91%
same,"kinase still bound, per cent of control",[4],100%
same,"kinase still bound, per cent of control",[5],100%
same,"kinase still bound, per cent of control",[6],100%
same,"kinase still bound, per cent of control",[7],100%
same,"kinase still bound, per cent of control",[8],88%
same,"kinase still bound, per cent of control",[9],71%
same,"kinase still bound, per cent of control",[10],100%
same,"kinase still bound, per cent of control",[11],100%
same,"kinase still bound, per cent of control",[12],89%
same,"kinase still bound, per cent of control",[13],100%
same,"kinase still bound, per cent of control",[14],100%
same,"kinase still bound, per cent of control",[15],70%
same,"kinase still bound, per cent of control",[16],100%
same,"kinase still bound, per cent of control",[17],80%
same,"kinase still bound, per cent of control",[18],97%
same,"kinase still bound, per cent of control",[19],51%
same,"kinase still bound, per cent of control",[20],100%
same,"kinase still bound, per cent of control",[21],40%
same,"kinase still bound, per cent of control",[22],100%
same,"kinase still bound, per cent of control",[23],68%
same,"kinase still bound, per cent of control",[24],91%
same,"kinase still bound, per cent of control",[25],100%
same,"kinase still bound, per cent of control",[26],82%
same,"kinase still bound, per cent of control",[27],100%
same,"kinase still bound, per cent of control",[28],87%
same,"kinase still bound, per cent of control",[29],100%
same,"kinase still bound, per cent of control",[30],100%
same,"kinase still bound, per cent of control",[31],100%
same,"kinase still bound, per cent of control",[32],87%
same,"kinase still bound, per cent of control",[33],75%
same,"kinase still bound, per cent of control",[34],78%
same,"kinase still bound, per cent of control",[35],100%
same,"kinase still bound, per cent of control",[36],92%
same,"kinase still bound, per cent of control",[37],94%
same,"kinase still bound, per cent of control",[38],100%
same,"kinase still bound, per cent of control",[39],84%
same,"kinase still bound, per cent of control",[40],26%
same,"kinase still bound, per cent of control",[41],100%
same,"kinase still bound, per cent of control",[42],100%
